Ends that are not written are not given here.
Molecular target: T1, Recombinant Human Insulin Receptor (28-956) (soluble insulin receptor, SIR) (Homo sapiens, UniProt P06213)
T1 construct: Recombinant Human Insulin Receptor (28-956); purchased GT/TECHNE Corp
Experiment: BIAcore determination of peptide-SIR binding (peptide immobilized on sensor chip CM5, soluble insulin receptor as analyte)
Conditions: sensor chip CM5, amine coupling, HBS-EP buffer, SIR 100 nM to 0.781 nM, flow 10 μl/min; for koff: read-out: Dissociation rate constant (peptide-SIR)
Description: The affinity for the soluble insulin receptor identified by SEQ ID NO:1 is compared by the method using BIAcore (BIAcore AB) (as described in Am. J. Physiol. 272 (1997) E1089-1098). Briefly, a solution of the soluble insulin receptor is brought into contact with the surface of the ready-made sensor chip with the peptide defined by SEQ ID NO:1 as immobilized thereon, and the interaction is measured.
The dissociation constant (KD) of the peptide P14 obtained in Example 3 was determined using BIAcore upgrade (Biacore AB) and the analysis software BIA evaluation version 3.0 (Biacore AB).
(§1) The ligand was immobilized on the sensor chip CM5 research grade (Biacore AB) by the amine coupling method. Thus, the peptide mentioned above was dissolved in 20 mM carbonate buffer (pH 8.5) (500 μg/ml), and 100 μl of the solution was passed through the flow cell at a flow rate of 5 μl/min. The amount of the peptide immobilized was 200 RU (resonance units).
Recombinant Human Insulin Receptor (28-956) (GT/TECHNE Corp.) was used as the analyte soluble insulin receptor (SIR). To 50 mg in a vial was added HBS-EP buffer (250 ml) for thorough dissolution ([…]), and the solution was 10-fold diluted to give a 100 nM solution. Eight concentration levels from 100 nM to 0.781 nM were prepared by subsequent repetitions of doubling dilution, and measurements were carried out using HBS-EP buffer (10 mM HEPES pH 7.4, 0.15M NaCl, 3 mM EDTA, 0.005% Surfactant P20) (Biacore AB) as a running solution; the rate of flow was 10 μl/min. A sensorgram was thus obtained.
The dissociation constant (KD) of the peptide P15 obtained in Example 6 was determined using BIAcore upgrade (Biacore AB) and the analysis software BIA evaluation version 3.0 (Biacore AB).
as §1, with “130 RU.” for “200 RU (resonance units).”
Recombinant Human Insulin Receptor (28-956) (GT/TECHNE Corp.) was used as the analyte SIR. Eight concentration levels from 100 nM to 0.781 nM were prepared by subsequent repetitions of doubling dilution, which was started from diluting 100 nM solution, and measurements were carried out using HBS-EP buffer as a running solution; the rate of flow was 10 μl/min. A sensorgram was thus obtained.
The dissociation constant (KD) of the peptide P21 obtained in Example 7 was determined using BIAcore upgrade (Biacore AB) and the analysis software BIA evaluation version 3.0 (Biacore AB).
as §1, with “270 RU.” for “200 RU (resonance units).”

T1 sequence (P06213 28-956): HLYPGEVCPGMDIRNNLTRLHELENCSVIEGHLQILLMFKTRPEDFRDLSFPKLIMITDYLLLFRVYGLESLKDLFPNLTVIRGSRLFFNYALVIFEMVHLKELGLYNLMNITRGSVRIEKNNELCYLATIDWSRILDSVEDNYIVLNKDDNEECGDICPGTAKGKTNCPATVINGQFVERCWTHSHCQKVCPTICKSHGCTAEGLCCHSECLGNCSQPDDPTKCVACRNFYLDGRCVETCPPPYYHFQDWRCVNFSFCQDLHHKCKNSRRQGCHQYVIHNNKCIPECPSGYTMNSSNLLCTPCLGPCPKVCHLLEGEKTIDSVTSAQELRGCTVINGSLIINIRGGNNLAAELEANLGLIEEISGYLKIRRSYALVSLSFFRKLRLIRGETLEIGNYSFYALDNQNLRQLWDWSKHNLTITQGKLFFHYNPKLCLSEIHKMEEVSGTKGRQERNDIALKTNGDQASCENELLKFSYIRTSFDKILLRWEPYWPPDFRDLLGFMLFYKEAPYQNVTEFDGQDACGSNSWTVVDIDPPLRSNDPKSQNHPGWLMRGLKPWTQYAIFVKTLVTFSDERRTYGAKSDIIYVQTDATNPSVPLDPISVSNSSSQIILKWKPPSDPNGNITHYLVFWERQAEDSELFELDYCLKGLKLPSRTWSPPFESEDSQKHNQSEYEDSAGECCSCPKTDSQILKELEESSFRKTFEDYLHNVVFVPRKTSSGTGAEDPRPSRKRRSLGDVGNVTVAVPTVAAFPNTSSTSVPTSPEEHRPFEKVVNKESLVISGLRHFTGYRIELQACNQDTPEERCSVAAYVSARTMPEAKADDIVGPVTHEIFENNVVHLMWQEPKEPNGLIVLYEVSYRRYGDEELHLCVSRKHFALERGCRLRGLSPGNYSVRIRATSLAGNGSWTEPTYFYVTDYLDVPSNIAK

Binding rate constant (peptide-SIR)	koff	Sequence
8.6E+02	0.02 s⁻¹	CASDIVEGIYL [Peptide P15, CASDIVEGIYL]
9.7E+03	0.015 s⁻¹	CASDIVEGLYIVLAER [Peptide P14, CASDIVEGLYIVLAER]
5.1E+04	0.6 s⁻¹	CQHILGSDIVEGIYL [Peptide P21, CQHILGSDIVEGIYL]

Reference: patent publication US7906618B2, “Peptide capable of binding to insulin-binding protein and adsorbent” (Kaneka Corporation, priority 2004, dated 2011)
